From article PMC3702004, “Comparison of Intake and Systemic Relative Effect Potencies of Dioxin-like Compounds in Female Mice after a Single Oral Dose” (Environmental Health Perspectives, 2013)

Columns and labels:
[1] = system: Cyp1a1 mRNA in liver; experiment: Cyp1a1 gene expression in liver (real-time PCR); format: in vivo, female C57BL/6 mice; conditions: for BMR20TCDD Liver Cyp1a1 mRNA: 3 days after single oral dose; for REP Liver Cyp1a1 mRNA: relative to TCDD
Description: (§1) Animals. Eight-week-old female C57BL/6 mice (Harlan laboratories, Venray, the Netherlands) were randomly assigned to treatment groups (six animals per group) and allowed to acclimate for 1.5 weeks. The animals were housed in groups in standard cages and conditions (23 ± 2°C, 50–60% relative humidity, 12-hr dark/light cycle) with free access to food and water. Mice received a single dose of test compound by oral gavage at a dosing volume of 10 mL/kg body weight (BW). Mice treated with corn oil vehicle (10 mL/kg BW) served as controls. For each congener, five different doses were administered, ranging from 0.5–100 μg/kg BW (TCDD) to 5,000–500,000 µg/kg BW (PCB-153). Detailed information on doses is provided in Supplemental Material, Table S1 (http://dx.doi.org/10.1289/ehp.1206336). On day 3 after dosing, animals were euthanized by CO2/O2 asphyxiation, and blood was immediately collected from the abdominal aorta. The liver, thymus, spleen, and adipose tissue were removed, weighed (liver, thymus, and spleen), snap frozen, and stored at –80°C. All animal treatments were performed with permission of the Animal Ethical Committee (DEC Utrecht) and performed according to the [Law on Animal Experiments (1977)]. Animals were treated humanely and with regard for alleviation of suffering.
(§2) RNA isolation and quantitative real-time polymerase chain reaction (PCR). Total RNA was isolated from liver and PBLs using a QIAGEN RNeasy kit (QIAGEN). Purity and concentration of the isolated RNA was determined by measuring the absorbance ratio at 260/280 nm and 230/260 nm with a Nanodrop 2000 spectrophotometer (Thermo Scientific, Asheville, NC, USA). RNA was reverse transcribed to complementary DNA (cDNA) using the iScript cDNA synthesis Kit (Bio-Rad, Veenendaal, the Netherlands). Quantitative real-time PCR analyses were performed using the iQ Real-Time PCR Detection System with SYBR green (Bio-Rad). Amplification reactions were set up with […] containing 12.5 μL iQ SYBR Green Supermix (Bio-rad), 0.5 μL distilled H2O, 1 μL (10 μM) forward primer, 1 μL (10 μM) reverse primer, and 10 μL first strand cDNA (10X diluted). Primer sequences were as follows: Cyp1a1: forward-5´-GGTTAACCATGACCGGGAACT-3´ and reverse-5´-TGCCCAAACCAAAGAGAGTGA-3´ ([Schulz et al. 2012]); Cyp1a2: forward-5´-ACATTCCCAAGGAGCGCTGTATCT-3´ and reverse-5´-GTCGATGGCCGAGTTGTTATTGGT-3´ ([Flaveny et al. 2010]); Cyp1b1: forward-5´-GTGGCTGCTCATCCTCTTTACC-3´ and reverse-5´-CCCACAACCTGGTCCAACTC-3´ ([Berge et al. 2004]); β-actin: forward-5´-ATGCTCCCCGGGCTGTAT-3´ and reverse-5´-CATAGGAGTCCTTCTGACCCATTC-3´ ([Schulz et al. 2012]). All primers were run through the National Center for Biotechnology Information Primer-BLAST database (http://www.ncbi.nlm.nih.gov/tools/primer-blast/) to confirm specificity and validate for optimal annealing temperature (60°C for all primers) and efficiency. […] The following program was used for denaturation and amplification of cDNA: 3 min at 95°C, followed by 40 cycles of 15 sec at 95°C and 45 sec at 60°C. Gene expression for each sample was expressed as threshold cycle (Ct), normalized to the reference gene β-actin (ΔCt). We calculated fold induction relative to the control group.
(§3) Data analysis. We obtained concentration–response curves using a sigmoidal dose–response nonlinear regression curve fit with variable slope (GraphPad Prism 6.01; GraphPad Software Inc., San Diego, CA, USA):
(§4) In this Hill equation, y is the dependent variable (EROD activity or fold induction of mRNA levels), x the independent variable (administered or systemic dose), E0 is the estimated background response level, Emax is the maximum response, b is the estimated median effective concentration (EC50), and n is the shaping parameter of the Hill curve.
(§5) Using the congener-specific BMR20TCDD concentration, REPs were calculated relatively to TCDD: […]

[2] = system: hepatic CYP1A1 activity (ethoxyresorufin-O-deethylase, EROD); experiment: Hepatic EROD activity in hepatic microsomal fractions after single oral dose; format: in vivo, female C57BL/6 mice; conditions: for BMR20TCDD Liver EROD activity: 3 days after single oral dose; for REP Liver EROD activity: relative to TCDD
Description: as §1
EROD activity. We determined hepatic CYP1A1 activity using ethoxyresorufin-O-deethylase (EROD) activity in hepatic microsomal fractions as described by [Schulz et al. (2012)].
as §3, §4, §5

[3] = system: Cyp1a1 mRNA in PBLs; experiment: Cyp1a1 gene expression in peripheral blood lymphocytes; format: in vivo, female C57BL/6 mice; conditions: for BMR20TCDD PBLs Cyp1a1 mRNA: 3 days after single oral dose; for REP PBLs Cyp1a1 mRNA: relative to TCDD
Description: as §1
Plasma and PBL isolation. Blood from two mice was pooled (total volume of approximately 1.4 mL); plasma and PBLs were then isolated using Ficoll Paque gradient (GE Healthcare Europe, Diegem, Belgium). Plasma samples were stored at –80°C until compound analysis. Isolated lymphocytes were lysed with RLT buffer (QIAGEN, Venlo, the Netherlands) as described in the QIAGEN RNAeasy kit protocol and stored at –80°C until use.
as §2
Data analysis. We obtained concentration–response curves using a sigmoidal dose–response nonlinear regression curve fit with variable slope (GraphPad Prism 6.01; GraphPad Software Inc., San Diego, CA, USA): […]

[4] = CYP1A2 knockout mice; ref Diliberto et al. 1997; cited from earlier work
[5] = dose metric Adm dose (µg/kg BW)
[6] = dose metric Syst liver (ng/g lipid)
[7] = dose metric Syst liver (ng/g liver)
[8] = dose metric Syst plasma (ng/g lipid)
[9] = dose metric Syst adipose (ng/g lipid)

| Compound | BMR20TCDD Liver Cyp1a1 mRNA ([1]; dose metric Adm dose) | BMR20TCDD Liver Cyp1a1 mRNA ([1]; dose metric Syst plasma) | REP Liver Cyp1a1 mRNA [1, 5] | REP Liver Cyp1a1 mRNA [1, 6] | REP Liver Cyp1a1 mRNA [1, 7] | REP Liver Cyp1a1 mRNA [1, 8] | BMR20TCDD Liver EROD activity ([2]; dose metric Adm dose) | BMR20TCDD Liver EROD activity ([2]; dose metric Syst adipose) | BMR20TCDD Liver EROD activity ([2]; dose metric Syst plasma) | REP Liver EROD activity [2, 5] | REP Liver EROD activity [2, 9] | REP Liver EROD activity [2, 6] | REP Liver EROD activity [2, 7] | REP Liver EROD activity [2, 8] | BMR20TCDD Liver Cyp1a1 mRNA ([1]; dose metric Syst adipose) | REP Liver Cyp1a1 mRNA [1, 9] | BMR20TCDD PBLs Cyp1a1 mRNA ([3]; dose metric Adm dose) | BMR20TCDD PBLs Cyp1a1 mRNA ([3]; dose metric Syst plasma) | REP PBLs Cyp1a1 mRNA [3, 5] | REP PBLs Cyp1a1 mRNA [3, 8] | other results |
| --- | --- | --- | --- | --- | --- | --- | --- | --- | --- | --- | --- | --- | --- | --- | --- | --- | --- | --- | --- | --- | --- |
| Clc1ccc(-c2cc(Cl)c(Cl)cc2Cl)cc1Cl [PCB-118, 2,3´,4,4´,5-pentachlorobiphenyl] | 139,631 µg/kg BW | 803,766 ng/g lipid | 0.000005 | 0.00005 | 0.00007 | 0.000003 | 55,259 µg/kg BW | 359,114 ng/g lipid | 311,118 ng/g lipid | 0.000005 | 0.000003 | 0.00006 | 0.00006 | 0.000004 | – | – | – | – | – | – | – |
| Clc1ccc(-c2cc(Cl)c(Cl)c(Cl)c2)cc1Cl [PCB-126, 3,3´,4,4´,5-pentachlorobiphenyl] | 558 µg/kg BW | – | 0.001 | 0.001 | 0.001 | 0.008 | 29.3 µg/kg BW | 72.7 ng/g lipid | 72.3 ng/g lipid | 0.01 | 0.02 | 0.003 | 0.004 | 0.02 | 315 ng/g lipid | 0.008 | 603 µg/kg BW | 847 ng/g lipid | 0.04 | 0.06 | – |
| Clc1ccc(-c2cc(Cl)c(Cl)c(Cl)c2Cl)cc1Cl [PCB-156, 2,3,3´,4,4´,5-hexachlorobiphenyl] | 44,305 µg/kg BW | 303,586 ng/g lipid | 0.00001 | 0.0001 | 0.0001 | 0.000009 | 15,664 µg/kg BW | 82,483 ng/g lipid | 98,188 ng/g lipid | 0.00002 | 0.00001 | 0.0002 | 0.0002 | 0.00001 | 180,515 ng/g lipid | 0.00001 | 747,734 µg/kg BW | 2,359,081 ng/g lipid | 0.00003 | 0.00002 | – |
| Clc1cc2c(cc1Cl)Oc1c(cc(Cl)c(Cl)c1Cl)O2 [PeCDD, 1,2,3,7,8-pentachlorodibenzodioxin] | 1.25 µg/kg BW | 3.94 ng/g lipid | 0.5 | 0.4 | 0.4 | 0.7 | 0.54 µg/kg BW | 1.25 ng/g lipid | 2.31 ng/g lipid | 0.5 | 1 | 0.3 | 0.3 | 0.6 | 2.36 ng/g lipid | 1 | 33.7 µg/kg BW | 34.0 ng/g lipid | 0.7 | 1.5 | – |
| Clc1cc2c(cc1Cl)Oc1cc(Cl)c(Cl)cc1O2 [TCDD, 2,3,7,8-tetrachlorodibenzodioxin, reference compound] | 0.64 µg/kg BW | 2.66 ng/g lipid | 1 | 1 | 1 | 1 | 0.29 µg/kg BW | 1.23 ng/g lipid | 1.38 ng/g lipid | 1 | 1 | 1 | 1 | 1 | 2.50 ng/g lipid | 1 | 22.4 µg/kg BW | 50.6 ng/g lipid | 1 | 1 | Liver:adipose ratio [4]: < 0.3 |
